These results are taken from patent publication US10251394B2, “Molecules having pesticidal utility, and intermediates, compositions, and processes, related thereto” (Dow AgroSciences LLC, priority 2016, dated 2019).

Experiment [1] deals with Beet Armyworm (Spodoptera exigua). Description: Bioassay on Beet Armyworm (BAW), 128-well diet tray assay. Type of experiment: in vivo. As to conditions: Beet Armyworm, Table ABC, read-out: BAW rating. How it is done: (§1) Example A: Bioassays on Beet Armyworm (Spodoptera Exigua, LAPHEG) (“BAW”), Corn Earworm (Helicoverpa Zea, HELIZE) (“CEW”), and Cabbage Looper (Trichoplusia Ni, TRIPNI) (“CL”)
(§2) Certain molecules disclosed in this document were tested against BAW, CEW, and CL using procedures described in the following examples. In the reporting of the results, the “BAW, CEW, & CL Rating Table” was used (See Table Section).
Bioassays on BAW were conducted using a 128-well diet tray assay. One to five second instar BAW larvae were placed in each well (3 mL) of the diet tray that had been previously filled with 1 mL of artificial diet to which 50 μg/cm^2 of the test molecule (dissolved in 50 μL of 90:10 acetone-water mixture) had been applied (to each of eight wells) and then allowed to dry. Trays were covered with a clear self-adhesive cover and held at 25° C., 14:10 light-dark for five to seven days. Percent mortality was recorded for the larvae in each well; activity in the eight wells was then averaged. The results are indicated in the table entitled “Table ABC: Biological Results” (See Table Section).
(§3) Bioassays on BAW and CL were conducted according to the procedures outlined in Example A: Bioassays on Beet Armyworm (“BAW”) and Cabbage Looper (“CL”) using the indicated concentrations.

In experiment [2] the test system is Cabbage Looper (Trichoplusia ni). Nature of the experiment: Bioassay on Cabbage Looper (CL), 128-well diet tray assay. Type of experiment: in vivo. As to conditions: Cabbage Looper, Table ABC, read-out: CL rating. On the procedure:
as §1, §2
Bioassays on CL were conducted using a 128-well diet tray assay. One to five second instar CL larvae were placed in each well (3 mL) of the diet tray that had been previously filled with 1 mL of artificial diet to which 50 μg/cm^2 of the test molecule (dissolved in 50 μL of 90:10 acetone-water mixture) had been applied (to each of eight wells) and then allowed to dry. Trays were covered with a clear self-adhesive cover and held at 25° C., 14:10 light-dark for five to seven days. Percent mortality was recorded for the larvae in each well; activity in the eight wells was then averaged. The results are indicated in the table entitled “Table ABC: Biological Results” (See Table Section).
as §3

For `C=CCNC(=O)C1(NC(=O)c2ccc(/C(F)=C/C(c3cc(Cl)c(Cl)c(Cl)c3)C(F)(F)F)cc2C)CC1` (stereo not shown) [F9, (Z)—N-(1-(Allylcarbamoyl)cyclopropyl)-2-methyl-4-(1,4,4,4-tetrafluoro-3-(3,4,5-trichlorophenyl)but-1-en-1-yl)benzamide], the pest or weed control at 50 µg/cm2 in experiment [1] and in experiment [2] was 50 to 100% in each case.
For the compound `F/C(=C\C(c1cc(Cl)c(Cl)c(Cl)c1)C(F)(F)F)c1ccc(C(=S)NCC(=S)NCC(F)(F)F)c(C(F)(F)F)c1` (stereo not shown) [PF88, (Z)-4-(1,4,4,4-tetrafluoro-3-(3,4,5-trichlorophenyl)but-1-en-1-yl)-N-(2-thioxo-2-((2,2,2-trifluoroethyl)amino)ethyl)-2-(trifluoromethyl)benzothioamide], the pest or weed control at 50 µg/cm2 in experiment [1] and in experiment [2] was 50 to 100% each time.
As to `C[C@@H](NC(=O)c1ccc(/C(F)=C/C(c2ccc(OC(F)(F)F)c(Cl)c2)C(F)(F)F)cc1C(F)(F)F)C(=O)NCC(F)(F)F` (stereo partly drawn) [F182, 4-((Z)-3-(3-Chloro-4-(trifluoromethoxy)phenyl)-1,4,4,4-tetrafluorobut-1-en-1-yl)-N—((R)-1-oxo-1-((2,2,2-trifluoroethyl)amino)propan-2-yl)-2-(trifluoromethyl)benzamide], the pest or weed control at 50 µg/cm2 in experiment [1] and in experiment [2] was 50 to 100% each time.
Take `C[C@@H](NC(=O)c1ccc(/C(F)=C/C(c2cc(F)c(F)c(C#CC(C)(C)C)c2)C(F)(F)F)cc1C(F)(F)F)C(=O)NCC(F)(F)F` (stereo partly drawn) [F216, 4-((Z)-3-(3-(3,3-Dimethylbut-1-yn-1-yl)-4,5-difluorophenyl)-1,4,4,4-tetrafluorobut-1-en-1-yl)-N—((R)-1-oxo-1-((2,2,2-trifluoroethyl)amino)propan-2-yl)-2-(trifluoromethyl)benzamide]: the pest or weed control at 50 µg/cm2 in experiment [1] and in experiment [2] was 50 to 100% each time.
With `Cc1cc(C(/C=C(\F)c2ccc(C(=O)NC3(C(=O)N(C)CC(F)(F)F)CC3)c(C(F)(F)F)c2)C(F)(F)F)ccc1Cl` (stereo not shown) [PF51, (Z)-4-(3-(4-Chloro-3-methylphenyl)-1,4,4,4-tetrafluorobut-1-en-1-yl)-N-(1-(methyl(2,2,2-trifluoroethyl)carbamoyl)cyclopropyl)-2-(trifluoromethyl)benzamide], the pest or weed control at 50 µg/cm2 in experiment [1] and in experiment [2] was 50 to 100% each time.
Regarding `O=C(CNC(=O)c1ccc(/C(F)=C/C(c2ccc(C(F)(F)F)c(F)c2)C(F)(F)F)cc1C(F)(F)F)NCC(F)(F)F` (stereo not shown) [F211], the pest or weed control at 50 µg/cm2 in experiment [1] and in experiment [2] was 50 to 100% throughout.
With `O=C(CNC(=O)c1ccc(/C(F)=C/C(c2ccc(F)c(F)c2)C(F)(F)F)cc1C(F)(F)F)NCC(F)(F)F` (stereo not shown) [F215, (Z)-4-(3-(3,4-difluorophenyl)-1,4,4,4-tetrafluorobut-1-en-1-yl)-N-(2-oxo-2-((2,2,2-trifluoroethyl)amino)ethyl)-2-(trifluoromethyl)benzamide], the pest or weed control at 50 µg/cm2 in experiment [1] and in experiment [2] was 50 to 100% throughout.
On to `C[C@@H](NC(=O)c1ccc(/C(F)=C/C(c2cc(Cl)c(Cl)c(Cl)c2)C(F)(F)F)cc1Br)C(=O)N(C)CC(F)(F)F` (stereo partly drawn) [F50, 2-Bromo-N—((R)-1-(methyl(2,2,2-trifluoroethyl)amino)-1-oxopropan-2-yl)-4-((Z)-1,4,4,4-tetrafluoro-3-(3,4,5-trichlorophenyl)but-1-en-1-yl)benzamide], for which the pest or weed control at 50 µg/cm2 in experiment [1] and in experiment [2] was 50 to 100% throughout.
As to `CC(F)(F)C(/C=C(\F)c1ccc(C(=O)NC2(C(=O)NCC(F)(F)F)CC2)c(Cl)c1)c1cc(Cl)c(Cl)c(Cl)c1` (stereo not shown) [PF62, (Z)-2-Chloro-4-(1,4,4-trifluoro-3-(3,4,5-trichlorophenyl)pent-1-en-1-yl)-N-(1-((2,2,2-trifluoroethyl)carbamoyl)cyclopropyl)benzamide], the pest or weed control at 50 µg/cm2 in experiment [1] and in experiment [2] was 50 to 100% throughout.
`CC[C@@H](NC(=O)c1ccc(/C(F)=C/C(c2cc(Cl)c(Cl)c(Cl)c2)C(F)(F)F)cc1C(F)(F)F)C(N)=O` (stereo partly drawn) [F126, N—((R)-1-Amino-1-oxobutan-2-yl)-4-((Z)-1,4,4,4-tetrafluoro-3-(3,4,5-trichlorophenyl)but-1-en-1-yl)-2-(trifluoromethyl)benzamide]: the pest or weed control at 50 µg/cm2 in experiment [1] and in experiment [2] was 50 to 100% each time.
Take `O=C(CNC(=O)c1ccc(/C(F)=C/C(c2cc(Cl)c(Br)c(Cl)c2)C(F)(F)F)cc1C(F)(F)F)NCC(F)(F)F` (stereo not shown) [F110]: the pest or weed control at 50 µg/cm2 in experiment [1] and in experiment [2] was 50 to 100% in each case.
For `O=C(NC1(C(=O)NCC(F)(F)F)CC1)c1ccc(/C(F)=C/C(c2cc(Cl)c(Cl)c(Cl)c2)C(F)(F)F)cc1Br` (stereo not shown) [F21, (Z)-2-Bromo-4-(1,4,4,4-tetrafluoro-3-(3,4,5-trichlorophenyl)but-1-en-1-yl)-N-(1-((2,2,2-trifluoroethyl)carbamoyl)cyclopropyl)benzamide], the pest or weed control at 50 µg/cm2 in experiment [1] and in experiment [2] was 50 to 100% in each case.
Take `C=Cc1cc(C(/C=C(\F)c2ccc(C(=O)N[C@@H]3CON(CC(F)(F)F)C3=O)c(C(F)(F)F)c2)C(F)(F)F)cc(Cl)c1Cl` (stereo partly drawn) [F196, 4-((Z)-3-(3,4-Dichloro-5-vinylphenyl)-1,4,4,4-tetrafluorobut-1-en-1-yl)-N—((R)-3-oxo-2-(2,2,2-trifluoroethyl)isoxazolidin-4-yl)-2-(trifluoromethyl)benzamide]: the pest or weed control at 50 µg/cm2 in experiment [1] and in experiment [2] was 50 to 100% throughout.
As to `CC(NC(=O)CNC(=O)c1ccc(/C(F)=C/C(c2cc(Cl)c(Cl)c(Cl)c2)C(F)(F)F)cc1C(F)(F)F)C(F)(F)F` (stereo not shown) [F65, (Z)—N-(2-Oxo-2-((1,1,1-trifluoropropan-2-yl)amino)ethyl)-4-(1,4,4,4-tetrafluoro-3-(3,4,5-trichlorophenyl)but-1-en-1-yl)-2-(trifluoromethyl)benzamide], the pest or weed control at 50 µg/cm2 in experiment [1] and in experiment [2] was 50 to 100% each time.
On to `C[C@@H](NC(=O)c1ccc(/C(F)=C/C(c2cc(Cl)c(Cl)c(Cl)c2)C(F)(F)F)cc1Br)C(=O)NCC(F)F` (stereo partly drawn) [F31, 2-Bromo-N—((R)-1-((2,2-difluoroethyl)amino)-1-oxopropan-2-yl)-4-((Z)-1,4,4,4-tetrafluoro-3-(3,4,5-trichlorophenyl)but-1-en-1-yl)benzamide], for which the pest or weed control at 50 µg/cm2 in experiment [1] and in experiment [2] was 50 to 100% throughout.
`C=CCON(CC(F)(F)F)C(=O)[C@@H](C)NC(=O)c1ccc(/C(F)=C/C(c2cc(Cl)c(Cl)c(Cl)c2)C(F)(F)F)cc1C(F)(F)F` (stereo partly drawn) [F27, N—((R)-1-((Allyloxy)(2,2,2-trifluoroethyl)amino)-1-oxopropan-2-yl)-4-((Z)-1,4,4,4-tetrafluoro-3-(3,4,5-trichlorophenyl)but-1-en-1-yl)-2-(trifluoromethyl)benzamide]: the pest or weed control at 50 µg/cm2 in experiment [1] and in experiment [2] was 50 to 100% in each case.
In the case of `CC[C@@H](NC(=O)c1ccc(/C(F)=C/C(c2cc(Cl)c(Cl)c(Cl)c2)C(F)(F)F)cc1Cl)C(=O)NCC(F)(F)F` (stereo partly drawn) [F100, 2-Chloro-N—((R)-1-oxo-1-((2,2,2-trifluoroethyl)amino)butan-2-yl)-4-((Z)-1,4,4,4-tetrafluoro-3-(3,4,5-trichlorophenyl)but-1-en-1-yl)benzamide], the pest or weed control at 50 µg/cm2 in experiment [1] and in experiment [2] was 50 to 100% each time.
As to `C/C=C/c1cc(C(/C=C(\F)c2ccc(C(=O)N[C@H](C)C(=O)NCC(F)(F)F)c(C(F)(F)F)c2)C(F)(F)F)cc(Cl)c1Cl` (stereo partly drawn) [F188, 4-((Z)-3-(3,4-Dichloro-5-((E)-prop-1-en-1-yl)phenyl)-1,4,4,4-tetrafluorobut-1-en-1-yl)-N—((R)-1-oxo-1-((2,2,2-trifluoroethyl)amino)propan-2-yl)-2-(trifluoromethyl)benzamide], the pest or weed control at 50 µg/cm2 in experiment [1] and in experiment [2] was 50 to 100% throughout.
As for `CN(CC(F)(F)F)C(=O)C1(NC(=O)c2ccc(/C(F)=C/C(c3cc(Br)cc(Br)c3)C(F)(F)F)cc2C(F)(F)F)CC1` (stereo not shown) [F108, (Z)-4-(3-(3,5-Dibromophenyl)-1,4,4,4-tetrafluorobut-1-en-1-yl)-N-(1-(methyl(2,2,2-trifluoroethyl)carbamoyl)cyclopropyl)-2-(trifluoromethyl)benzamide], the pest or weed control at 50 µg/cm2 in experiment [1] and in experiment [2] was 50 to 100% throughout.
With `CN(CC(F)(F)F)C(=O)CNC(=O)c1ccc(/C(F)=C/C(c2cc(Cl)c(Cl)c(Cl)c2)C(F)(F)F)cc1C(F)(F)F` (stereo not shown) [F51, (Z)—N-(2-(Methyl(2,2,2-trifluoroethyl)amino)-2-oxoethyl)-4-(1,4,4,4-tetrafluoro-3-(3,4,5-trichlorophenyl)but-1-en-1-yl)-2-(trifluoromethyl)benzamide], the pest or weed control at 50 µg/cm2 in experiment [1] and in experiment [2] was 50 to 100% each time.
